Laboratory results from patent US20260337190A1, “CRYSTAL FORM OF PYRIDINOPYRIMIDINONE COMPOUND, ACID SALT THEREOF, CRYSTAL FORM OF ACID SALT THEREOF, AND USE” (Wuhan Humanwell Innovative Drug Research and Development …, priority 2022, published 2026).

Experiments:
[1] = system: ERK phosphorylation level in DLD-1 cells; experiment: Inhibition of ERK phosphorylation level in DLD-1 cells (intracellular western blot); assay type: cell-based; details: summary statement
Procedure: Intracellular western blot quantitative analysis was used to detect the inhibitory level of compounds on ERK phosphorylation in DLD-1 cells.
DLD-1 cells (ATCC, CCL-221) were seeded in a T75 culture flask at 2.5×10^6 cells/flask, and cultured in a RPMI 1640 medium containing 10% FBS for 2 days. On day 3, the cells were seeded on a 384-well plate, and cultured overnight at 37 °C, 5% CO2. After overnight culture, the plate was added with serially diluted compounds (the final content of DMSO was 0.5%), the negative group was added with DMSO, and incubated in a 37 °C, 5% CO2 incubator.
The cells were fixed, washed once with PBS, treated to disrupt membranes, and blocked at room temperature for 1 h. The blocking solution was removed. The plate was added with primary antibody (CST, Cat. No. #4370S), and incubated overnight at 4 °C The plate was washed 3 times with PBST (PBS solution added with 0.05% Tween-20), and soaked for 2 min each time. The plate was added with secondary antibody (LI-COR, Cat. No. 926-32211), and incubated at room temperature in the dark. The plate was washed 3 times with PBST, and soaked for 2 min each time.
The plate was centrifuged at 1000 rpm for 1 min, scanned on a two-color infrared laser imaging system (Odyssey® CLX) to read the signal.
Relative signal=800-channel signal values/700-channel signal values. […]
IC50 values were calculated using Graphpad 5 software.

[2] = Human liver microsome stability; assay type: in vitro ADME
Procedure: The human liver microsome stability test was performed by incubating the compound and human liver microsomes in vitro. First, the compound to be tested was prepared into a 10 mM stock solution in DMSO solvent, and then the compound was diluted to 0.5 mM with acetonitrile. Human liver microsomes (Corning) were diluted with PBS into a microsome/buffer solution, and the solution was used to dilute 0.5 mM compound into a working solution, in which the concentration of the compound was 1.5 μM, and the concentration of human liver microsomes was 0.75 mg/mL. A deep-well plate was taken, 30 μL of the working solution was added per well, and then 15 μL of pre-heated 6 mM NADPH solution was added thereto to initiate a reaction, and the reaction was incubated at 37 °C At 0, 5, 15, 30, and 45 min of the incubation, 135 μL of acetonitrile was added to the corresponding wells to terminate the reaction. After the reaction was terminated with acetonitrile at the last time point of 45 min, the deep-well plate was vortexed for 10 min (600 rpm/min), and then centrifuged for 15 min. After centrifugation, the supernatant was collected, and added with purified water in a ratio of 1:1 to perform LC-MS/MS detection. A ratio of a peak area of compound to a peak area of internal standard at each time point was obtained, and the peak area ratios of the compound at 5, 15, 30, and 45 min were compared with the peak area ratio at 0 min to calculate the remaining percentage of the compound at each time point. T1/2 was calculated by using GraphPad 5 software.

remaining at 0.5 h ([2]; human liver microsomes, 30 min, 37 °C, NADPH, read-out: Remaining percentage of compound after incubation for 30 min): 98.7% | hepatic metabolic stability ([2]; summary statement): good hepatic metabolic stability | metabolism in the human body ([2]; summary statement): slow metabolism in the human body
SMILES: Cc1nc(N[C@H](C)c2cccc(S(F)(F)(F)(F)F)c2)c2cn(C3(CF)CC3)c(=O)cc2n1 [compound of formula I, (R)-6-(1-(fluoromethyl)cyclopropyl)-2-methyl-4-((1-(3-(pentafluorosulfanyl)phenyl)ethyl)amino)pyrido[4,3-d]pyrimidin-7(6H)-one]
inhibitory effect on the ERK phosphorylation level in DLD-1 cells [1]: significant inhibitory effect
